The results in this text go back to ChEMBL document CHEMBL3507680, “University of Dundee, Gates Library screen for HepG2 cell viability”.

SMILES strings stand for the structures.

This data set can be described thus: Human HepG2 cell viability assay in 384 well format. The format is toxicity, cell-based. Details: dose 125 nL, time 70.5 hour; concentration not given beside the values. The following applies: HepG2 cells, read-out: Inhibition.
On to `OC1(CN2CCCC2)CCCN(Cc2c[nH]c(CC3CCCC3)n2)C1` (centres undefined), for which the cytotoxicity at 70.5 h is -4.13%.
For `CCc1nccn1C1CCCN(C(=O)c2ccc(C(N)=O)cn2)C1` (centres undefined), the cytotoxicity at 70.5 h is -9.53%.
As to `Cc1cc(N2CCC(Cc3cnccn3)C2)ncn1` (centres undefined), the cytotoxicity at 70.5 h is -7.8%.
Consider `O=C(CN1C(=O)CCNC1=O)N1CCOC(c2ccc(Cl)c(Cl)c2)C1` (centres undefined), for which the cytotoxicity at 70.5 h is -10.7%.
As for `Cc1cc(C2CCCCN2C(=O)CN2CC3(CCNCC3)OC2=O)no1` (centres undefined), the cytotoxicity at 70.5 h is -6.52%.
As for `c1coc(-c2nc(CN3CCn4c(nnc4C4CC4)C3)cs2)c1`, the cytotoxicity at 70.5 h was -8.26%.
With `CN(Cc1ncc(-c2ccccc2)o1)CC1CCCN1c1cccnn1` (centres undefined), the cytotoxicity at 70.5 h was -10.2%.
As to `COCC1CC2(CCNCC2)CN1Cc1csc(C)n1` (centres undefined), the cytotoxicity at 70.5 h is -8.39%.
Take `O=C1NCCc2c1sc1ccc(C(=O)N3CC[C@H](CO)[C@H](O)C3)cc21`: the cytotoxicity at 70.5 h was -2.24%.
As for `CN(Cc1cccc(-n2cccn2)c1)Cc1cccs1`, the cytotoxicity at 70.5 h was -11%.
Consider `Cc1nc(C)n(CC(=O)N2CCc3ncc(Cl)cc3C2)n1`, for which the cytotoxicity at 70.5 h is 7.22%.
Regarding `N#Cc1ccc(OC2CCN(C(=O)c3cncc(Br)c3)CC2)nc1`, the cytotoxicity at 70.5 h was -9.99%.
`Cc1ccc(C(=O)N(C)Cc2ccc(Br)o2)c(=O)[nH]1`: the cytotoxicity at 70.5 h is -2.83%.
As to `O=C(c1ccsc1)N1CCc2c(CNc3ncccn3)n[nH]c2C1`, the cytotoxicity at 70.5 h came out at 3.39%.
For the compound `CN(C)C(=O)CC1CCOc2ccccc21` (centres undefined), the cytotoxicity at 70.5 h is 0.971%.
`Brc1ccc(CNCc2nnc3n2CCC3)s1`: the cytotoxicity at 70.5 h amounted to 14.8%.
To `O=C1Nc2ccccc2C12CCN(c1nccs1)CC2` belongs -3.17%.
To `CNC(=O)CN1CC[C@H]2CN(C(=O)c3ccccc3C)C[C@H]2C1` belongs -3.61%; to `Cc1ccc(O)c(CNc2cccc(CN3CCSCC3)c2)n1`, 1.03%.
In the case of `CC(C)(C)OC(=O)N1CCn2c(nnc2C2CCCNC2)C1` (centres undefined), the cytotoxicity at 70.5 h came out at 6.76%.
For the compound `CCn1ccnc1CN1CCCN(C(=O)c2cc(Cl)c[nH]2)CC1`, the cytotoxicity at 70.5 h is -12.8%.
To `CCOCCC1(CNC(=O)c2ccsc2)CCC1` belongs -5.98%.
As for `CCN(CC)C(=O)CCn1ncc2c(Cl)cccc21`, the cytotoxicity at 70.5 h was -10.4%.
For the compound `Cc1ccc(NC2CCN(C(=O)Cc3c(C)noc3C)CC2)nn1`, the cytotoxicity at 70.5 h was -2.99%.
With `CN(C)c1cc(NCc2cnc3n2CCN(CC2CC2)CC3)ncn1` the figure was 2.24%; with `CN1CCCC[C@@H]2[C@H]1[C@@H](c1ccccc1)CCN2C(=O)c1ccncc1`, -5.64%; with `CS(=O)(=O)NC(=O)c1cnc2c(cnn2C2CCCC2)c1`, -4.29%.
To `O=C1CC2(CCCCN2C(=O)c2cccs2)CN1CC1CC1` (centres undefined) belongs 3.54%; to `Cc1cc(Cl)ccc1C(=O)C1CCCN(Cc2cnc(N(C)C)s2)C1` (centres undefined), -5.77%.
To `CC(O)c1cn(Cc2ccc(Cl)cc2)nn1` (centres undefined) belongs -6.41%.
Regarding `Cn1ccc(CNC(=O)N2CCC(C3(C)OCCO3)CC2)c1`, the cytotoxicity at 70.5 h was -8.7%.
For the compound `Cc1nc(CN2CCN(CC(O)CN3CCOCC3)CC2)oc1C` (centres undefined), the cytotoxicity at 70.5 h worked out at 8.53%.
As to `CC(C#N)NS(=O)(=O)c1ccc2c(c1)N(C)CCC2` (centres undefined), the cytotoxicity at 70.5 h was -0.913%.
To `CCOCC1c2c(ncn2C(C)C)CCN1C(=O)CC` (centres undefined) belongs 7.88%; to `CN(CC1(O)CCN(c2ccnc3ccncc23)CC1)C(=O)CCN`, -6.66%.
Regarding `CC(NC(=O)c1cc(C(C)C)[nH]n1)C(=O)Nc1ccccc1` (centres undefined), the cytotoxicity at 70.5 h was -6.22%.
Regarding `Cn1ccc(C(=O)NCc2cccc(N3CCCCC3=O)c2)cc1=O`, the cytotoxicity at 70.5 h is -4.99%.
For the compound `CCn1nc(C)c2ncnc(N(C)C)c21`, the cytotoxicity at 70.5 h is -3.05%.
For the compound `COc1ncnc(N)c1CNCC(C)SC` (centres undefined), the cytotoxicity at 70.5 h was determined as 34.8%.
As for `c1ccc(CCN2C[C@@H]3OCCN(c4ncccn4)[C@@H]3C2)cc1`, the cytotoxicity at 70.5 h is -9.92%.
To `Cc1cccc(N2CC3(CCN(S(=O)(=O)C4CC4)C3)C2)n1` belongs -6.18%; to `CCC(C)(NCC(=O)Nc1nc(C)cs1)c1nc(C)cs1` (centres undefined), -0.105%; to `CC1c2ncc(COCC3CCOCC3)n2CCN1C(=O)c1ccco1` (centres undefined), -10.5%.
To `Cc1nc(CN2C(=O)COC3(CCN(Cc4ccco4)CC3)C2C)cs1` (centres undefined) belongs -1.55%; to `Cc1nn(C)c2ncc(NC(=O)N(C)Cc3cc(Cl)cn3C)cc12`, -4.9%.
As for `CS(=O)(=O)c1cn[nH]c1C1CCCCN1C(=O)c1cncs1` (centres undefined), the cytotoxicity at 70.5 h is -6.78%.
With `Cc1ccc(CN2CC[C@@H](N3CCOCC3)[C@@H]2Cc2cccnc2)o1`, the cytotoxicity at 70.5 h was -6.64%.
In the case of `CCn1cc2c(n1)C(COC)CN(C(=O)COc1ccccc1C)C2` (centres undefined), the cytotoxicity at 70.5 h was -7.2%.
On to `CC(C)n1cnnc1CN(C)C1CCCNC1` (centres undefined), for which the cytotoxicity at 70.5 h is -10.1%.
Take `CC(Oc1cccc(Cl)c1)C(=O)Nc1cnn(CC(=O)NC2CC2)c1` (centres undefined): the cytotoxicity at 70.5 h was -17.2%.
Consider `Cc1cnccc1N1CCCN(C(=O)CCCn2ccnc2C)CC1`, for which the cytotoxicity at 70.5 h is -6.13%.
Consider `CC(=O)N1Cc2ccccc2C[C@H]1C(=O)N(C)Cc1ccccn1`, for which the cytotoxicity at 70.5 h was -14.8%.
Regarding `CC(C)C(=O)N1CCN(C(=O)c2cc(Cl)no2)[C@H]2CS(=O)(=O)C[C@H]21`, the cytotoxicity at 70.5 h is -2.12%.
For `Cc1cc(F)ccc1-n1cc(O)c(C(N)=O)n1`, the cytotoxicity at 70.5 h is -19%.
With `CCc1cc(CNC(=O)Nc2cc(F)ccc2N2CCCCC2)on1` the figure was -2.62%.
Take `O=c1oc2ccccc2n1CCN(CC1CCOC1)C1CC1` (centres undefined): the cytotoxicity at 70.5 h was -11.1%.
For the compound `O=C(NCC1CCCO1)c1cc(-c2ccc3c(c2)CCO3)n[nH]1` (centres undefined), the cytotoxicity at 70.5 h was 16.6%.
For the compound `Cc1noc(C)c1CN1CCC2(CC1)NC(=O)CC2c1ccccc1` (centres undefined), the cytotoxicity at 70.5 h was 2.78%.
Take `O=C(O)[C@H]1C[C@H](C(=O)NCc2ccncc2)CN(CCC(F)(F)F)C1`: the cytotoxicity at 70.5 h was -6.65%.
With `Cc1ccc2oc(=O)n(CCC(=O)N3CCN(C)C(=O)C3)c2c1`, the cytotoxicity at 70.5 h is -3.44%.
As for `COCc1noc(Cn2ccc3ncccc3c2=O)n1`, the cytotoxicity at 70.5 h is -7.25%.
Turning to `CCc1nccn1C1CCCN(C(=O)c2cn3c(C)cccc3n2)C1` (centres undefined), the cytotoxicity at 70.5 h was -3.89%.
For `CCc1ccccc1OCCCN(C)C(=O)C1CCCN1C(N)=O` (centres undefined), the cytotoxicity at 70.5 h is -8.96%.
On to `CC1CCN(C(=O)[C@H]2CC[C@@H]3[C@@H](CCN3Cc3nccs3)O2)CC1`, for which the cytotoxicity at 70.5 h turned out to be 25.3%.
With `O=C(N1CCOCC1)N1CCCC1c1nc(-c2ccccn2)no1` (centres undefined) the figure was -8.93%; with `Cc1cc(C(=O)CN2CCN(c3nccs3)CC2)c(C)n1C1CC1`, -10.5%.
Consider `CC(C)C(=O)NC1CC2(CCN(CC(=O)N(C)C)CC2)c2ccccc21` (centres undefined), for which the cytotoxicity at 70.5 h was -2.53%.
On to `COc1ncccc1CNC(=O)c1ccc(C)[nH]c1=O`, for which the cytotoxicity at 70.5 h was determined as 12.6%.
Regarding `CCOc1ccc(N2CCCN=C2NC(=O)c2ccccc2C)cc1`, the cytotoxicity at 70.5 h was -12.8%.
With `CCCC(=O)NCc1ccc(N2CCCCC2)cc1`, the cytotoxicity at 70.5 h is -10.2%.
In the case of `CC(=O)N1CCC(N2C[C@@H](F)[C@@H](OCc3nc4ncccc4[nH]3)C2)CC1`, the cytotoxicity at 70.5 h was -2.27%.
Regarding `CN(C)C(=O)C1(Oc2ccc(Cl)cc2)CCNCC1`, the cytotoxicity at 70.5 h is -3.42%.
To `CC(=O)c1ccc(-n2c(C)cn(CCS(C)(=O)=O)c2=O)cc1` belongs -11.2%; to `CC(C)CN1CC(O)CN(C(=O)c2cccc(C(F)(F)F)c2)CC1=O` (centres undefined), 13.3%; to `Cc1ccc([C@@H]2CN(C(=O)c3cc(C)n[nH]3)C[C@H]2NC(=O)C2CC2)cc1`, 6.77%.
With `Cc1nc[nH]c1CN1CCCn2nc(CN3CCC(F)(F)CC3)cc2C1` the figure was -9.44%; with `CCCC(C#N)NC(=O)CCCOc1cccc(F)c1` (centres undefined), -9.46%.
As to `O=C(O)C(c1ccc2c(c1)OCCO2)N1CCSCC1` (centres undefined), the cytotoxicity at 70.5 h was -3.24%.
`CC(C)N(C)Cc1ccccc1CNc1ccc2nncn2n1`: the cytotoxicity at 70.5 h was -12%.
For `CS(=O)(=O)c1ccc2c(c1)nc1n2[C@@H](CNCc2cccnc2)COC1`, the cytotoxicity at 70.5 h is -6.64%.
For `CC(C)COCCC(=O)Nc1ccc2oc(=O)n(CCN(C)C)c2c1`, the cytotoxicity at 70.5 h was 17.6%.
Take `Cc1nn(C)c(C)c1CN(C(=O)c1cc(Cl)c[nH]c1=O)C(C)C`: the cytotoxicity at 70.5 h was -11%.
For the compound `CSc1ccc(C(CNC(C)=O)N2CCc3sccc3C2)cc1` (centres undefined), the cytotoxicity at 70.5 h was -12.8%.
`CS(=O)(=O)N[C@@H]1CN(Cc2ccccc2)C[C@H]1O`: the cytotoxicity at 70.5 h was -5.89%.
To `COc1cc(CNCc2ccnc(N3CCOCC3)c2)cc(OC)c1` belongs 17.7%; to `Cc1nc(NCc2ccccn2)c2c(n1)c(C)nn2C`, 5.97%.
On to `CN(C)S(=O)(=O)N1CCC2(COCc3cnc(NCC4CC4)nc32)C1` (centres undefined), for which the cytotoxicity at 70.5 h is 29.2%.
As for `Cc1noc(C)c1CN1CCCC(c2noc(C3CC3)n2)C1` (centres undefined), the cytotoxicity at 70.5 h was -7.9%.
For `Fc1cccc(NCc2ncc[nH]2)c1`, the cytotoxicity at 70.5 h is -8.15%.
`OC1(CNCCc2csc(-c3ncccn3)n2)CCNC1` (centres undefined): the cytotoxicity at 70.5 h was -14.5%.
For the compound `Cn1c(Cn2cccn2)nnc1C1CCN(Cc2cccnc2)CC1`, the cytotoxicity at 70.5 h is -3.7%.
Consider `O=C(CCS(=O)(=O)C1CCCC1)NCCc1ccc2c(c1)OCCO2`, for which the cytotoxicity at 70.5 h is -2.36%.
As for `CC(C)NS(=O)(=O)c1cc(C(=O)O)cc(-c2ccc(CN(C)C)cc2)c1`, the cytotoxicity at 70.5 h turned out to be 16.9%.
With `CC1=C(C(=O)N2CCOC(Cc3cccc(C(F)(F)F)c3)C2)OCCO1` (centres undefined) the figure was -6.57%; with `COc1ccc(C(C)NCc2ccnn2C)cc1Cn1cccn1` (centres undefined), -6.58%.
As for `CNc1cc(C)nc(N2CCC3(CC2)[C@H](O)C[C@@H]3OC)n1`, the cytotoxicity at 70.5 h is -2.45%.
On to `COc1ccc(CCNC(=O)CN2CCCC2c2noc(C)n2)cc1` (centres undefined), for which the cytotoxicity at 70.5 h is -1.93%.
Regarding `Cc1cc(Nc2nc(C)cc(C)n2)cc(C2CCCN2)n1` (centres undefined), the cytotoxicity at 70.5 h is -7.57%.
With `COCCN1C(=O)[C@]2(CC[C@@H]3CN(C(=O)NC4CCCC4)C[C@@H]32)N=C1C` the figure was -14.1%.
